Read-outs that look alike come from different tables or passages of the source.
Key:
[1] = tested on: SiHa cells; experiment: Antiproliferation assay (7 days, Sulforhodamine B) in SiHa cells; type: cell-based, human; conditions: for Selectivity (HEL/SiHa): HEL EC50 divided by SiHa EC50; for Selectivity for SiHa cells compared with HEL cells: Example 80, also versus PHK keratinocytes, fold
Method: Antiproliferation assays measure effect of compounds on proliferation of cultured cells. Cells are cultured for 7 days in the presence of various concentrations of compounds. On the 7th day, cells are stained with dye, and intensity of staining (proportional to cell number) is measured by spectrophotometer.
(§1) Cells were detached from culture flasks using trypsin, counted, and plated in 96-well culture plates (250-1000 cells per well, depending on cell type). On the next day (defined as day 0), after cells attached to the bottom of plates, 5-fold serial dilutions of compounds were added in duplicate. No compound and 10 μM colchicine (cell division inhibitor) was added to control wells, which would represent 100% proliferation and 0% proliferation, respectively.
(§2) Seven days after addition of compounds, culture plates were treated with 10% trichloroacetic acid at 4° C. for 1 hr, then washed with water. This procedure allows cell-derived proteins to bind to the bottom surface of plates. Proteins were stained with 0.4% Sulforhodamine B in 1% acetic acid for 10 minutes, followed by extensive washing with 1% acetic acid. Remaining dye bound to the bottom of plates was dissolved in 10 mM Trizma base. This generated purple color that was quantified by measuring the absorbance at 510 nm wavelength, using spectrophotometer.
(§3) Cells were detached from culture flasks using trypsin, counted, and plated in 96-well culture plates ([…], depending on cell type). On the next day (defined as day 0), 5-fold serial dilutions of compounds were added in duplicate. Seven days after addition of compounds, culture plates were treated with 10% trichloroacetic acid at 4° C. for 1 hr and washed with water. This procedure allows cellular proteins to bind to the bottom surface of plates. Proteins were stained with 0.4% Sulforhodamine B in 1% acetic acid for 10 minutes, followed by extensive washing with 1% acetic acid. Remaining dye bound to the bottom of plates was solubilized in 10 mM Trizma base, generating purple color. Intensity of the color (proportional to cell number) was quantified by measuring the absorbance at 510 nm wavelength, using spectrophotometer. […] GraphPad Prism version 4.00 for Windows (GraphPad Software, San Diego Calif. USA) was used for the curve fitting and EC50 calculation.

[2] = tested on: HEL cells; experiment: Antiproliferation assay (7 days, Sulforhodamine B) in HEL fibroblasts; type: cell-based, human; conditions: read-out: Antiproliferation EC50 HEL lung fibroblast
Method: as §1, §2, §3

[3] = tested on: C-4 I cells; experiment: Antiproliferation assay in C-4 I cells; type: cell-based; conditions: Homo sapiens, Table 79-4, read-out: Antiproliferation EC50 in HPV positive carcinoma cells C-41 HPV18
[4] = tested on: SCC-4 cells; experiment: Antiproliferation assay in SCC-4 cells; type: cell-based; conditions: Homo sapiens, Table 79-4, read-out: Antiproliferation EC50 in HPV negative carcinoma cells SCC-4 tongue
[5] = tested on: CaSki cells; experiment: Antiproliferation assay in CaSki cells; type: cell-based; conditions: Homo sapiens, Ca-Ski; Table 79-4; read-out: Antiproliferation EC50 in HPV positive carcinoma cells CaSki HPV16
[6] = tested on: PHK skin keratinocytes; experiment: cells; type: cell-based; conditions: Homo sapiens, Keratinocyte; Table 79-3; read-out: Antiproliferation EC50 PHK skin keratinocytes
[7] = tested on: CK cervical keratinocytes; experiment: cells; type: cell-based; conditions: Homo sapiens, Keratinocyte; Table 79-3; read-out: Antiproliferation EC50 CK cervical keratinocytes
[8] = tested on: HeLa cells; experiment: Antiproliferation assay in HeLa cells; type: cell-based; conditions: Homo sapiens, Table 79-4, read-out: Antiproliferation EC50 in HPV positive carcinoma cells HeLa HPV18
[9] = tested on: HT-3 cells; experiment: Antiproliferation assay in HT-3 cells; type: cell-based; conditions: Homo sapiens, Table 79-4, read-out: Antiproliferation EC50 in HPV negative carcinoma cells HT-3 cervix
[10] = tested on: ME-180 cells; experiment: Antiproliferation assay in ME-180 cells; type: cell-based; conditions: Homo sapiens, Table 79-4, read-out: Antiproliferation EC50 in HPV positive carcinoma cells ME-180 HPV39
[11] = tested on: MS751 cells; experiment: Antiproliferation assay in MS751 cells; type: cell-based; conditions: Homo sapiens, Table 79-4, read-out: Antiproliferation EC50 in HPV positive carcinoma cells MS-751 HPV18
[12] = tested on: SCC-9 cells; experiment: Antiproliferation assay in SCC-9 cells; type: cell-based; conditions: Homo sapiens, Table 79-4, read-out: Antiproliferation EC50 in HPV negative carcinoma cells SCC-9 tongue
[13] = tested on: HPV-16 SiHa cells; type: cell-based, human; conditions: day 7, 0.2 μg/mL, Annexin V-Propidium iodide double staining
[14] = Table 79-2, 7 days, read-out: Antiproliferation EC50 SiHa cervical carcinoma (HPV16)
[15] = Homo sapiens, SiHa, 168 h, Table 79-2, 7 days, read-out: Antiproliferation EC50 SiHa cervical carcinoma (HPV16)
[16] = Homo sapiens, HEL, 168 h, Table 79-2, 7 days
[17] = Homo sapiens, SiHa, Table 79-3, read-out: Antiproliferation EC50 SiHa cervical carcinoma (HPV16)

Row | Compound | Selectivity (HEL/SiHa) ([1]; Table 79-2) | EC50 [1, 15] [nM] | EC50 [2, 16] [nM] | also measured
1 | C[C@@]1(CO)[C@H](O)CC[C@@]2(C)[C@H]1CC[C@H]1C[C@@H]3C[C@@]12CC[C@]3(O)CO [Aphidicolin (+), Aphidicolin] | 0.40 | – | – | EC50 [1, 14]: 856 nM; EC50 ([2]; Table 79-2, 7 days): 324 nM
2 | Cc1c2ccncc2c(C)c2c1[nH]c1ccccc12 [Ellipticine] | 1.02 | 478 | 486 | –
3 | Nc1ccn([C@@H]2O[C@H](CO)[C@@H](O)[C@@H]2O)c(=O)n1 [AraC, cytarabine] | 0.113 | 257 | 29 | EC50 [3]: 123 nM; EC50 [4]: 74 nM; EC50 [5]: 94 nM; Selectivity for SiHa cells compared with HEL cells [1]: did not show such selectivity; EC50 [1, 17]: 257 nM; EC50 ([1]; Homo sapiens, SiHa, Table 79-4, read-out: Antiproliferation EC50 in HPV positive carcinoma cells SiHa HPV16): 257 nM; EC50 ([1]; Homo sapiens, six HPV positive cell lines: SiHa, CaSki, HeLa, MS751, C-4I, ME-180, read-out: Antiproliferation EC50 values, range over all cell lines): 94 to 257 nM; Selectivity (CK/SiHa) ([1]; Table 79-3): 0.4; Selectivity (PHK/SiHa) ([1]; Table 79-3): 0.57; EC50 [6]: 147 nM; EC50 [7]: 107 nM; EC50 [8]: 174 nM; EC50 [9]: 214 nM; EC50 [10]: 101 nM; EC50 [11]: 144 nM; EC50 [12]: 68 nM
4 | COc1cc([C@@H]2c3cc4c(cc3[C@@H](O[C@@H]3O[C@@H]5CO[C@@H](C)O[C@H]5[C@H](O)[C@H]3O)[C@H]3COC(=O)[C@H]23)OCO4)cc(OC)c1O [Etoposide] | 0.31 | 469 | 144 | –
5 | Nc1nc2c(ncn2CCOCP(=O)(O)O)c(=O)[nH]1 [PMEG, 9-(2-phosphonylmethoxyethyl)guanine] | 4.1 | 207 | 861 | Selectivity for SiHa cells compared with HEL cells [1]: did not show such selectivity; EC50 [1, 17]: 207 nM; Selectivity (CK/SiHa) ([1]; Table 79-3): 2.4; Selectivity (PHK/SiHa) ([1]; Table 79-3): 0.48; EC50 [6]: 101 nM; % of apoptotic cells in the culture [13]: 1.2%; EC50 [7]: 501 nM
6 | COc1cc([C@@H]2c3cc4c(cc3[C@H](O)[C@H]3COC(=O)[C@H]23)OCO4)cc(OC)c1OC [Podofilox] | – | – | – | Selectivity for SiHa cells compared with HEL cells [1]: showed no selectivity
7 | CC[C@]1(O)C[C@H]2CN(CCc3c([nH]c4ccccc34)[C@@](C(=O)OC)(c3cc4c(cc3OC)N(C=O)[C@H]3[C@@](O)(C(=O)OC)[C@H](OC(C)=O)[C@]5(CC)C=CCN6CC[C@]43[C@@H]65)C2)C1 [Vincristine] | 1.55 | 1.24 | 1.92 | –
8 | O=C1c2c(O)ccc(O)c2C(=O)c2c(NCCNCCO)ccc(NCCNCCO)c21 [Mitoxantrone] | <0.37 | 8.67 | < 3.2 | –
9 | COc1cccc2c1C(=O)c1c(O)c3c(c(O)c1C2=O)C[C@@](O)(C(=O)CO)C[C@@H]3O[C@H]1C[C@H](N)[C@H](O)[C@H](C)O1 [Doxorubicin] | 0.43 | 9.76 | 4.2 | –
10 | Bleomycin | 0.01 | – | – | EC50 [1, 14]: 3140 nM; EC50 ([2]; Table 79-2, 7 days): 20.3 nM
11 | Nc1ccn(C[C@@H](CO)OCP(=O)(O)O)c(=O)n1 [Cidofovir] | 0.3 | 84000 | 28000 | –
12 | Nc1ccn([C@@H]2O[C@H](CO)[C@@H](O)C2(F)F)c(=O)n1 [gemcitabine] | – | – | – | Selectivity for SiHa cells compared with HEL cells [1]: did not show such selectivity
13 | C[C@H]1O[C@@H](n2cc(F)c(=O)[nH]c2=O)[C@H](O)[C@@H]1O [Doxifluridine] | 0.449 | 8760 | 3930 | –
14 | COc1cc2c(c(N)c1OC)C(=O)/C(=C\c1cc(C)c(O)c(C)c1)C2 [Indanosine, Indanocine] | – | – | – | EC50 ([1]; Homo sapiens, SiHa, 168 h, read-out: Antiproliferation EC50 SiHa cervical carcinoma (HPV16)): 588 nM; EC50 ([2]; Homo sapiens, HEL, 168 h): 159 nM
15 | CN(C)/N=N/c1[nH]cnc1C(N)=O [Dacarba-zine, Dacarbazine] | 3.98 | 7400 | 29500 | –
16 | CC[C@]1(O)C[C@@H]2CN(CCc3c([nH]c4ccccc34)[C@@](C(=O)OC)(c3cc4c(cc3OC)N(C)[C@H]3[C@@](O)(C(=O)OC)[C@H](OC(C)=O)[C@]5(CC)C=CCN6CC[C@]43[C@@H]65)C2)C1 [Vinblastine] | 0.39 | 0.68 | 0.27 | –
